Data on 8 compounds can be found in PubChem BioAssay (NCI).

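Dose response: 5 concentrations. Exposure: 48 h. Format: 96-well plates. Endpoint: linear interpolation; highest concentration if not reached. Definition used: TGI = concentration required for complete inhibition of growth.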

Some test systems named below: 786-0 renal; ACHN renal; BT-549 breast; CCRF-CEM leukemia; DU-145 prostate; HCT-15 colon; HOP-92 NSCLC; KM12 colon; M14 melanoma; MCF7 breast; MDA-MB-435; OVCAR-3 ovarian; OVCAR-4 ovarian; OVCAR-8 ovarian; SK-MEL-2 melanoma; MALME-3M melanoma; NCI-H226 lung; HL-60(TB) leukemia.
What all share (experiment): growth of human tumour cells (NCI), 48 h

On to `COc1c(C)c(C/C=C(\C)CCCCO[Si](C(C)C)(C(C)C)C(C)C)c(OC)c2ccccc12`, for which the TGI with 786-0 renal was more than 100 µM; in the test on ACHN renal it was more than 100 µM; in the test on BT-549 breast it was more than 100 µM; with CCRF-CEM leukemia, 89.3 µM; in the test on DU-145 prostate, more than 100 µM; in the test with HCT-15 colon, more than 100 µM. Moreover, the TGI with HOP-92 NSCLC, in the test on KM12 colon, in the test with M14 melanoma, in the test with MCF7 breast, in the test with MDA-MB-435 and in the test with OVCAR-3 ovarian was more than 100 µM throughout. Moreover, the TGI in the test with OVCAR-4 ovarian, in the test on OVCAR-8 ovarian and in the test with SK-MEL-2 melanoma was more than 100 µM throughout.

As for `C=CC(Cl)(CBr)CCC(Br)=C(C)C` (centres undefined), the TGI in the test on 786-0 renal is 67.6 µM; with ACHN renal, 49.7 µM; in the test with BT-549 breast, 44.4 µM; with CCRF-CEM leukemia, more than 100 µM; in the test with DU-145 prostate, more than 100 µM; in the test with HCT-15 colon, 35.9 µM. Besides, the TGI with HOP-92 NSCLC was 35.2 µM; with KM12 colon, 40.7 µM; in the test on M14 melanoma it was more than 100 µM; in the test on MALME-3M melanoma, 34.5 µM; with MCF7 breast it was 31.5 µM; in the test with MDA-MB-435, 46.7 µM. Also, the TGI in the test with NCI-H226 lung was more than 100 µM; with OVCAR-3 ovarian, 55.3 µM; with OVCAR-4 ovarian, 46.6 µM; with OVCAR-8 ovarian, 64.6 µM; in the test with SK-MEL-2 melanoma it was 36.8 µM.

For `CCOC(=O)c1cc2c(ccc3cc(C(=O)OCC)[nH]c32)[nH]1`, the TGI was 31.3 µM with 786-0 renal; more than 100 µM in the test with ACHN renal; more than 100 µM with BT-549 breast; more than 100 µM in the test on CCRF-CEM leukemia; more than 100 µM in the test on DU-145 prostate; more than 100 µM with HCT-15 colon. Further, the TGI with HOP-92 NSCLC, in the test with KM12 colon, with M14 melanoma, with MALME-3M melanoma, in the test on MCF7 breast and in the test with MDA-MB-435 was more than 100 µM each time. The TGI was more than 100 µM in the test with OVCAR-3 ovarian, 32.4 µM with OVCAR-4 ovarian and more than 100 µM with SK-MEL-2 melanoma.

With `CCN(CC)CC(=O)Nc1c(C(N)=O)nnn1Cc1cc(Cl)c(C(=O)c2ccc(Cl)cc2)c(Cl)c1`, the TGI is 31.4 µM with 786-0 renal; more than 100 µM in the test on ACHN renal; 34.6 µM in the test with BT-549 breast; 41.5 µM in the test with CCRF-CEM leukemia; 90.2 µM with DU-145 prostate; 34.4 µM in the test on HCT-15 colon. The TGI amounted to 39.5 µM in the test on HL-60(TB) leukemia; 53.2 µM in the test with HOP-92 NSCLC; 35.8 µM in the test on KM12 colon; 30.9 µM in the test on M14 melanoma; 32.4 µM in the test with MCF7 breast; 37.2 µM in the test with MDA-MB-435. The TGI is 30.4 µM in the test on NCI-H226 lung; 31.7 µM in the test with OVCAR-3 ovarian; more than 100 µM in the test with OVCAR-4 ovarian; 34.7 µM in the test on OVCAR-8 ovarian; 28.4 µM in the test on SK-MEL-2 melanoma.

For the compound `CC(=N/NC(=S)N1CCCCC1)/C(=N\NC(=S)N1CCCCC1)c1ccccc1`, the TGI is 3.69 µM in the test with 786-0 renal; 3.01 µM in the test with ACHN renal; 3.56 µM in the test with BT-549 breast; 0.973 µM in the test with DU-145 prostate; 4.56 µM in the test on HCT-15 colon; 3.36 µM in the test with HOP-92 NSCLC. The TGI was 3.99 µM in the test on KM12 colon; 3.64 µM in the test with M14 melanoma; 3.96 µM in the test with MALME-3M melanoma; more than 22.7 µM in the test with MCF7 breast; 4.07 µM in the test with MDA-MB-435; 3.47 µM in the test on NCI-H226 lung. In addition, the TGI turned out to be 3.34 µM in the test with OVCAR-3 ovarian, 3.61 µM in the test on OVCAR-4 ovarian, 6.24 µM in the test on OVCAR-8 ovarian and 4.62 µM in the test with SK-MEL-2 melanoma.

Consider `O=C(/C=C(\O)c1ccc(Cl)cc1)C(=O)N=Nc1c(O)[nH]c2ccc(Br)cc12`, for which the TGI with 786-0 renal, in the test on ACHN renal, in the test with BT-549 breast, in the test with DU-145 prostate, in the test on HCT-15 colon and in the test with HOP-92 NSCLC was more than 100 µM in each case. Also, the TGI with KM12 colon, in the test on M14 melanoma, in the test on MALME-3M melanoma, with MCF7 breast, with MDA-MB-435 and in the test on NCI-H226 lung was more than 100 µM in each case. Further, the TGI in the test with OVCAR-3 ovarian was 95.9 µM; in the test with OVCAR-4 ovarian, more than 100 µM; in the test with OVCAR-8 ovarian, more than 100 µM; in the test on SK-MEL-2 melanoma, 41.2 µM.

Turning to `COc1ccccc1C1SCC(=O)N1c1ccc(-n2c(-c3ccccc3)nc3ccccc3c2=O)cc1` (centres undefined), the TGI in the test with 786-0 renal, with ACHN renal, with BT-549 breast, with CCRF-CEM leukemia, in the test on DU-145 prostate and in the test on HCT-15 colon was more than 100 µM each time. Further, the TGI with HOP-92 NSCLC, in the test on KM12 colon, in the test on MALME-3M melanoma, in the test with MCF7 breast, in the test on MDA-MB-435 and in the test with NCI-H226 lung was more than 100 µM in each case. In addition, the TGI with OVCAR-3 ovarian was more than 100 µM; in the test with OVCAR-4 ovarian it was 56.7 µM; in the test on OVCAR-8 ovarian it was more than 100 µM; in the test with SK-MEL-2 melanoma, more than 100 µM.

For `COC(OC)C1OC(CO)C(n2cc(C)c(=O)[nH]c2=O)C1O` (centres undefined), the TGI in the test on 786-0 renal, in the test with ACHN renal, in the test with BT-549 breast, with CCRF-CEM leukemia, with DU-145 prostate and in the test on HCT-15 colon was more than 100 µM in each case. For the same compound, the TGI in the test with HOP-92 NSCLC, in the test on KM12 colon, in the test with M14 melanoma, in the test on MALME-3M melanoma, with MCF7 breast and in the test with MDA-MB-435 was more than 100 µM in each case. Also, the TGI with NCI-H226 lung, with OVCAR-3 ovarian, in the test with OVCAR-4 ovarian, in the test on OVCAR-8 ovarian and in the test on SK-MEL-2 melanoma was more than 100 µM in each case.
